Assay results: US10098887B2, “Antiviral compounds and methods of use thereof” (Trana Discovery, Inc., priority 2010, dated 2018)

Assay: assays described herein (not specified)

| SMILES | active in the assays described herein |
| --- | --- |
| O=[N+]([O-])c1ccccc1SNc1ccc2c(c1)OCO2 [Compound 75, 5-{[(2-nitrophenyl)thio]amino}-1,3-benzodioxole] | active |
| Cn1cccc1C=NN1CCN(Cc2cccc3ccccc23)CC1 [Compound 83, N-[(1-methyl-1H-pyrrol-2-yl)methylene]-4-(1-naphthylmethyl)-1-piperazinamine] | active |
| Oc1ccc(C(c2c[nH]c3ccccc23)c2c[nH]c3ccccc23)cc1O [Compound 86, 4-(di-1H-indol-3-ylmethyl)-1,2-benzenediol] | active |
| O=C(c1ccc(Br)cc1)c1ccc(N2CCCCC2)c([N+](=O)[O-])c1 [Compound 92, (4-bromophenyl)[3-nitro-4-(1-piperidinyl)phenyl]methanone] | active |
| CN(C)c1ccc2sc(S)nc2c1 [Compound 95, 5-(dimethylamino)-1,3-benzothiazole-2-thiol] | active |
| CCOc1ccc(C(=O)c2ccc(N3CC(C)OC(C)C3)c([N+](=O)[O-])c2)cc1 (stereo not shown) [Compound 102, [4-(2,6-dimethyl-4-morpholinyl)-3-nitrophenyl](4-ethoxyphenyl)methanone] | active |
| O=C(c1cccs1)N1CCN(c2ccc([N+](=O)[O-])c(N3CCCC3)c2)CC1 [Compound 114, 1-[4-nitro-3-(1-pyrrolidinyl)phenyl]-4-(2-thienylcarbonyl)piperazine] | active |
